From patent US12378224B2 (Dong-A Socio Holdings Co., Ltd., priority 2016, dated 2025)

Each compound was assayed against human MER (528-end) (Homo sapiens (Human), UniProt Q12866) (assay: HTRF Kinase Activity Biochemical Assay (KinEASE-TK)). Details: 10 uM ATP.
Chain of human MER (528-end) (Q12866 528-999 limits assumed): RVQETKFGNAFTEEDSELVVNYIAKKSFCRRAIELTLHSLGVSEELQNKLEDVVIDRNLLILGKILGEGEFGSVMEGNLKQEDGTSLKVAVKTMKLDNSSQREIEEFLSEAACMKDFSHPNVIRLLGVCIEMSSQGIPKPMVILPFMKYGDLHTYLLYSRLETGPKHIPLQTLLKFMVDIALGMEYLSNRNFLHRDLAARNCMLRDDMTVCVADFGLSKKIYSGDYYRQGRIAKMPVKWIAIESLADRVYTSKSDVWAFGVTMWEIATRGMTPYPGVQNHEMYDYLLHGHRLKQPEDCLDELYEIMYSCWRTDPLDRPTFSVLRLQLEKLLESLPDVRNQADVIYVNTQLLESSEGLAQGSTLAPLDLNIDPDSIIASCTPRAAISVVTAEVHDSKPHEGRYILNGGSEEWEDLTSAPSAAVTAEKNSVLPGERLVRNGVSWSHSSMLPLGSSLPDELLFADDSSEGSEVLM
In short: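 Activity read-out is the HTRF ratio (665 nm over 620 nm emission, ×10,000; excitation 340 nm) after 1 h detection with 0.375 nM Eu3+-cryptate anti-TK antibody plus 0.062 uM SA-XL665. Preceding kinase step: human MER (528-end), biotinylated TK substrate, 1 h, room temperature.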
In the case of CN1CCN(CCn2cc(-c3cccc(OC(=O)N4CC[C@@H](NC(=O)c5cc(-c6cnn(C)c6)cnc5N)C4)c3)cn2)CC1 [Example 288, 3-(1-(2-(4-methylpiperazin-1-yl)ethyl)-1H-pyrazol-4-yl)phenyl (R)-3-(2-amino-5-(1-methyl-1H-pyrazol-4-yl)nicotinamido)pyrrolidine-1-carboxylate], the IC50 is reported as over 1000 nM.
Cn1cc(-c2cnc(N)c(C(=O)N[C@@H]3CCN(C(=O)Oc4cccc(-c5cncc6ccccc56)c4)C3)c2)cn1 [Example 289, 3-(isoquinolin-4-yl)phenyl (R)-3-(2-amino-5-(1-methyl-1H-pyrazol-4-yl)nicotinamido)pyrrolidine-1-carboxylate] showed an IC50 of 10 to 100 nM.
Compound CN1CCN(c2cc(-c3cccc(OC(=O)N4CC[C@@H](NC(=O)c5cc(-c6cnn(C)c6)cnc5N)C4)c3)ccn2)CC1 [Example 290, 3-(2-(4-methylpiperazin-1-yl)pyridin-4-yl)phenyl (R)-3-(2-amino-5-(1-methyl-1H-pyrazol-4-yl)nicotinamido)pyrrolidine-1-carboxylate] has an IC50 of over 1000 nM.
Compound CN1CCN(Cc2ccc(-c3ccc4cc(OC(=O)N5CC[C@@H](NC(=O)c6cc(-c7cnn(C)c7)cnc6N)C5)ccc4c3)cc2)CC1 [Example 293, 6-(4-((4-methylpiperazin-1-yl)methyl)phenyl)naphthalen-2-yl (R)-3-(2-amino-5-(1-methyl-1H-pyrazol-4-yl)nicotinamido)pyrrolidine-1-carboxylate] has an IC50 of 100 to 1000 nM.
Cn1cc(-c2cnc(N)c(C(=O)N[C@@H]3CCN(C(=O)Oc4ccc5ccc(OCC6CCNCC6)cc5c4)C3)c2)cn1 [Example 298] showed an IC50 of 100 to 1000 nM.
Cn1cc(-c2cnc(N)c(C(=O)N[C@@H]3CCN(C(=O)Oc4ccc5ccc(OCCO)cc5c4)C3)c2)cn1 [Example 299, 7-(2-hydroxyethoxy)naphthalen-2-yl (R)-3-(2-amino-5-(1-methyl-1H-pyrazol-4-yl)nicotinamido)pyrrolidine-1-carboxylate] was tested, and the IC50 was 100 to 1000 nM.
For Cn1cc(-c2cnc(N)c(C(=O)N[C@@H]3CCN(C(=O)Oc4cccc(-c5ccc(CNC6CNC6)cc5)c4)C3)c2)cn1 [Example 306, 4′-((azetidin-3-ylamino)methyl)-[1,1′-biphenyl]-3-yl (R)-3-(2-amino-5-(1-methyl-1H-pyrazol-4-yl)nicotinamido)pyrrolidine-1-carboxylate], the IC50 was 100 to 1000 nM.
Compound Cn1cc(-c2cnc(N)c(C(=O)N[C@@H]3CCN(C(=O)Oc4cccc(-c5ccc(CNCCN)cc5)c4)C3)c2)cn1 [Example 307, 4′-(((2-aminoethyl)amino)methyl)-[1,1′-biphenyl]-3-yl (R)-3-(2-amino-5-(1-methyl-1H-pyrazol-4-yl)nicotinamido)pyrrolidine-1-carboxylate] has an IC50 of 100 to 1000 nM.
CN(C)CCNCc1ccc(-c2cccc(OC(=O)N3CC[C@@H](NC(=O)c4cc(-c5cnn(C)c5)cnc4N)C3)c2)cc1 [Example 308, 4′-(((2-(dimethylamino)ethyl)amino)methyl)-[1,1′-biphenyl]-3-yl (R)-3-(2-amino-5-(1-methyl-1H-pyrazol-4-yl)nicotinamido)pyrrolidine-1-carboxylate] gave an IC50 of 100 to 1000 nM.
In the case of CN1CC[C@@H](NCc2ccc(-c3cccc(OC(=O)N4CC[C@@H](NC(=O)c5cc(-c6cnn(C)c6)cnc5N)C4)c3)cc2)C1 [Example 310, 4′-((((R)-1-methylpyrrolidin-3-yl)amino)methyl)-[1,1′-biphenyl]-3-yl (R)-3-(2-amino-5-(1-methyl-1H-pyrazol-4-yl)nicotinamido)pyrrolidine-1-carboxylate], the IC50 is reported as 100 to 1000 nM.
With CN(C)C1CCN(Cc2ccc(-c3cccc(OC(=O)N4CC[C@@H](NC(=O)c5cc(-c6cnn(C)c6)cnc5N)C4)c3)cc2)C1 (stereo partly drawn) [Example 311, 4′-((3-(dimethylamino)pyrrolidin-1-yl)methyl)-[1,1′-biphenyl]-3-yl (3R)-3-(2-amino-5-(1-methyl-1H-pyrazol-4-yl)nicotinamido)pyrrolidine-1-carboxylate] the IC50 was 100 to 1000 nM.
With Cn1cc(-c2cnc(N)c(C(=O)N[C@@H]3CCN(C(=O)Oc4cccc(-c5ccc(CNC[C@@H]6CCCN6)cc5)c4)C3)c2)cn1 [Example 312, 4′-(((((S)-pyrrolidin-2-yl)methyl)amino)methyl)-[1,1′-biphenyl]-3-yl (R)-3-(2-amino-5-(1-methyl-1H-pyrazol-4-yl)nicotinamido)pyrrolidine-1-carboxylate] the IC50 was 100 to 1000 nM.
Work on Cn1cc(-c2cnc(N)c(C(=O)N[C@@H]3CCN(C(=O)Oc4cccc(-c5ccc(CN[C@@H]6CCNC6)cc5)c4)C3)c2)cn1 [Example 313, 4′-((((R)-pyrrolidin-3-yl)amino)methyl)-[1,1′-biphenyl]-3-yl (R)-3-(2-amino-5-(1-methyl-1H-pyrazol-4-yl)nicotinamido)pyrrolidine-1-carboxylate] yielded an IC50 of 100 to 1000 nM.
With CCN1CCC[C@@H]1CNCc1ccc(-c2cccc(OC(=O)N3CC[C@@H](NC(=O)c4cc(-c5cnn(C)c5)cnc4N)C3)c2)cc1 [Example 314, 4′-(((((R)-1-ethylpyrrolidin-2-yl)methyl)amino)methyl)-[1,1′-biphenyl]-3-yl (R)-3-(2-amino-5-(1-methyl-1H-pyrazol-4-yl)nicotinamido)pyrrolidine-1-carboxylate] the IC50 was 100 to 1000 nM.
With Cn1cc(-c2cnc(N)c(C(=O)N[C@@H]3CCN(C(=O)Oc4cccc(-c5ccc(CN[C@H]6CCCNC6)cc5)c4)C3)c2)cn1 [Example 315, 4′-((((S)-piperidin-3-yl)amino)methyl)-[1,1′-biphenyl]-3-yl (R)-3-(2-amino-5-(1-methyl-1H-pyrazol-4-yl)nicotinamido)pyrrolidine-1-carboxylate] the IC50 was 100 to 1000 nM.
Compound Cn1cc(-c2cnc(N)c(C(=O)N[C@@H]3CCN(C(=O)Oc4cccc(-c5ccc(CN6CCC[C@@H](N)C6)cc5)c4)C3)c2)cn1 [Example 316, 4′-(((R)-3-aminopiperidin-1-yl)methyl)-[1,1′-biphenyl]-3-yl (R)-3-(2-amino-5-(1-methyl-1H-pyrazol-4-yl)nicotinamido)pyrrolidine-1-carboxylate] has an IC50 of 100 to 1000 nM.
Compound CN1CCC(NCc2ccc(-c3cccc(OC(=O)N4CC[C@@H](NC(=O)c5cc(-c6cnn(C)c6)cnc5N)C4)c3)cc2)CC1 [Example 318, 4′-(((1-methylpiperidin-4-yl)amino)methyl)-[1,1′-biphenyl]-3-yl (R)-3-(2-amino-5-(1-methyl-1H-pyrazol-4-yl)nicotinamido)pyrrolidine-1-carboxylate] has an IC50 of 100 to 1000 nM.
In the case of Cn1cc(-c2cnc(N)c(C(=O)N[C@@H]3CCN(C(=O)Oc4cccc(-c5ccc(CN6CCCC(O)C6)cc5)c4)C3)c2)cn1 (stereo partly drawn) [Example 319, 4′-((3-hydroxypiperidin-1-yl)methyl)[1,1′-biphenyl]-3-yl (3R)-3-(2-amino-5-(1-methyl-1H-pyrazol-4-yl)nicotinamido)pyrrolidine-1-carboxylate], the IC50 is reported as 100 to 1000 nM.
Cn1cc(-c2cnc(N)c(C(=O)N[C@@H]3CCN(C(=O)Oc4cccc(-c5ccc(CN6CCCC(CO)C6)cc5)c4)C3)c2)cn1 (stereo partly drawn) [Example 320, 4′-((3-(hydroxymethyl)piperidin-1-yl)methyl)-[1,1′-biphenyl]-3-yl (3R)-3-(2-amino-5-(1-methyl-1H-pyrazol-4-yl)nicotinamido)pyrrolidine-1-carboxylate] gave an IC50 of 100 to 1000 nM.
Work on Cn1cc(-c2cnc(N)c(C(=O)N[C@@H]3CCN(C(=O)Oc4cccc(-c5ccc(CN6CCC(CO)CC6)cc5)c4)C3)c2)cn1 [Example 321, 4′-((4-(hydroxymethyl)piperidin-1-yl)methyl)-[1,1′-biphenyl]-3-yl (R)-3-(2-amino-5-(1-methyl-1H-pyrazol-4-yl)nicotinamido)pyrrolidine-1-carboxylate] yielded an IC50 of 100 to 1000 nM.
CN1CC[C@@H]2CN(Cc3ccc(-c4cccc(OC(=O)N5CC[C@@H](NC(=O)c6cc(-c7cnn(C)c7)cnc6N)C5)c4)cc3)C[C@@H]21 [Example 322, 4′-(((3aR,6aR)-1-methylhexahydropyrrolo[3,4-b]pyrrol-5(1H)-yl)methyl)-[1,1′-biphenyl]-3-yl (R)-3-(2-amino-5-(1-methyl-1H-pyrazol-4-yl)nicotinamido)pyrrolidine-1-carboxylate] was tested, and the IC50 was 100 to 1000 nM.
For Cn1cc(-c2cnc(N)c(C(=O)N[C@@H]3CCN(C(=O)Oc4cccc(-c5ccc(CN6CCCNCC6)cc5)c4)C3)c2)cn1 [Example 323, 4′-((1,4-diazepan-1-yl)methyl)-[1,1′-biphenyl]-3-yl (R)-3-(2-amino-5-(1-methyl-1H-pyrazol-4-yl)nicotinamido)pyrrolidine-1-carboxylate], the IC50 was 100 to 1000 nM.
Cn1cc(-c2cnc(N)c(C(=O)N[C@@H]3CCN(C(=O)Oc4cccc(-c5ccc(CN6CCC[C@@H]6CO)cc5)c4)C3)c2)cn1 [Example 324, 4′-(((R)-2-(hydroxymethyl)pyrrolidin-1-yl)methyl)-[1,1′-biphenyl]-3-yl (R)-3-(2-amino-5-(1-methyl-1H-pyrazol-4-yl)nicotinamido)pyrrolidine-1-carboxylate] showed an IC50 of 100 to 1000 nM.
Cn1cc(-c2cnc(N)c(C(=O)N[C@@H]3CCN(C(=O)Oc4cccc(-c5ccc(CN6CCC[C@H]6C(N)=O)cc5)c4)C3)c2)cn1 [Example 325, 4′-(((S)-2-carbamoylpyrrolidin-1-yl)methyl)-[1,1′-biphenyl]-3-yl (R)-3-(2-amino-5-(1-methyl-1H-pyrazol-4-yl)nicotinamido)pyrrolidine-1-carboxylate] showed an IC50 of over 1000 nM.
In the case of C[C@H](CO)NCc1ccc(-c2cccc(OC(=O)N3CC[C@@H](NC(=O)c4cc(-c5cnn(C)c5)cnc4N)C3)c2)cc1 [Example 327, 4′-((((R)-1-hydroxypropan-2-yl)amino)methyl)-[1,1′-biphenyl]-3-yl (R)-3-(2-amino-5-(1-methyl-1H-pyrazol-4-yl)nicotinamido)pyrrolidine-1-carboxylate], the IC50 is reported as 100 to 1000 nM.
Cn1cc(-c2cnc(N)c(C(=O)N[C@@H]3CCN(C(=O)Oc4cccc(-c5ccc(CNCCCO)cc5)c4)C3)c2)cn1 [Example 328, 4′-(((3-hydroxypropyl)amino)methyl)-[1,1′-biphenyl]-3-yl (R)-3-(2-amino-5-(1-methyl-1H-pyrazol-4-yl)nicotinamido)pyrrolidine-1-carboxylate] gave an IC50 of 100 to 1000 nM.
